{
  "source": "patent US10052311B2",
  "about": "“PPAR compounds for use in the treatment of fibrotic diseases” (INVENTIVA, priority 2014, dated 2018)",
  "key": {"[1]": {"biological_target": "T1, human PPARα (Homo sapiens, UniProt Q07869)", "T1 sequence (Q07869 200-468 limits assumed)": "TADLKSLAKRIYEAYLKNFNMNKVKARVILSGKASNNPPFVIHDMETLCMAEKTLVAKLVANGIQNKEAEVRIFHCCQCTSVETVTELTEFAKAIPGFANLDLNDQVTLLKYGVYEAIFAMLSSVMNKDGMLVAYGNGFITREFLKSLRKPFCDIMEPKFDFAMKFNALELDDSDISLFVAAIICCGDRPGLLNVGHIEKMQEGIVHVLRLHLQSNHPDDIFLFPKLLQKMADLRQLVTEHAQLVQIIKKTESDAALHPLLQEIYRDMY", "assay": "Transient transactivation assay, Cos-7 cells, chimeric PPARα-Gal4, luciferase reporter", "assay_type": "cell-based", "conditions": "Gal4 chimera, mean of 6 experiments", "description": "(§1) Transfections were performed by a chemical agent (Jet PEI)."}, "[2]": {"biological_target": "T2, mouse PPARα (Mus musculus, UniProt P23204)", "T2 sequence (P23204 200-468 limits assumed)": "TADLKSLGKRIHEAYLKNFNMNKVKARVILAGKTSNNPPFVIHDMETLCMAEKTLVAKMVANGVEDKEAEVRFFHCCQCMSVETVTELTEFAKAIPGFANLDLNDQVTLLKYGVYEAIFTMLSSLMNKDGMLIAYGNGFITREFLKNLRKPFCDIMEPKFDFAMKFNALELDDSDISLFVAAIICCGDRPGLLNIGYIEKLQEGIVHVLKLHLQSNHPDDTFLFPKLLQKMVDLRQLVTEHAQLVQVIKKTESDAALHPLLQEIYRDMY", "assay": "Transient transactivation assay, Cos-7 cells, chimeric PPARα-Gal4, luciferase reporter", "assay_type": "cell-based", "conditions": "Gal4 chimera, mean of 6 experiments", "description": "as §1"}, "[3]": {"test_system": "CCl4-exposed mice", "assay": "Carbon tetrachloride (CCl4)-induced liver fibrosis in mice", "assay_type": "in vivo, mouse", "conditions": "vs vehicle", "description": "Mice were allowed to habituate for at least 5 days prior to experimentation.\nSunflower oil (twice a week for 3 weeks, ip)/vehicle (once a day for 22 days po), n=7, • 2. […] CCl4 (3.5 mL/kg, twice a week for 3 weeks, ip)/vehicle (once a day for 22 days po), n=8 • 5.\nTwo days a week for 3 weeks, mice were intraperitoneally administered in the morning with either 100 μL of CCl4 (3.5 mL kg in sunflower oil (v/v, 1/11)) or 100 μL of sunflower oil.\nMeasured Parameters Collagen\nmRNA extraction was performed on small frozen liver samples (50-100 mg)."}, "[4]": {"test_system": "primary human dermal fibroblasts", "assay": "TGFβ-induced fibroblasts to myofibroblasts transition (FMT), α-SMA immunocytochemistry", "assay_type": "cell-based", "conditions": "Fibroblast, α-SMA-positive cells, 48 h, NC: not converged", "description": "(§2) The ability of compound A to inhibit TGFβ-induced lung and dermal fibroblasts to myofibroblasts transition (FMT) was determined by performing immunocytochemistry assays for the myofibroblast marker, α-smooth muscle actin (α-SMA). These assays were carried out using primary human lung or skin fibroblasts (Promocell). The cells were plated in 96-well plates in full growth medium for 24 h, followed by 24 h starvation in serum-free medium. The medium was then replaced by fresh medium containing TGFβ and compound A to be tested (at concentrations ranging from 10^−4 M to 4.5 10^−8 M) for another 48 h. The culture medium was then removed, the cells were fixed with formaldehyde and stained with a primary mouse α-SMA antibody (Sigma) and secondary fluorescence-labelled goat-anti-mouse antibody (Invitrogen). α-SMA expression was quantified using Meta Xpress software. […] Results were expressed as % of α-SMA-positive cells out of the total cell number. The data was normalised to the TGFβ treatment alone, which was taken as 100%. The results present the mean of biological triplicates. Dose-effect curves and IC50 values were calculated using the GraphPad Prism software."}, "[5]": {"test_system": "primary human lung fibroblasts", "assay": "TGFβ-induced fibroblasts to myofibroblasts transition (FMT), α-SMA immunocytochemistry", "assay_type": "cell-based", "conditions": "Fibroblast, α-SMA-positive cells, 48 h, NC: not converged", "description": "as §2"}},
  "note": "“And” between values parts separate entries of the source, which are not always exact repeats. Equal values may be shown once.",
  "data": [
    {"smiles": "O=C(O)CCCc1cc2cc(Cl)ccc2n1S(=O)(=O)c1ccc2ncsc2c1", "note": "[compound A, 5-Chloro-1-[(6-benzothiazolyl)sulfonyl]-1H-indole-2-butanoic acid]", "values": [
      {"measurement": "EC50", "setting": "[1]", "value": 0.92, "unit": "µM"},
      {"measurement": "EC50", "setting": "[2]", "value": 0.29, "unit": "µM"},
      {"measurement": "Col1a expression (liver)", "setting": "[3]; 30 mg/kg/day po 22 days", "value": "significantly inhibited the expression of Col1a"},
      {"measurement": "TGFβ-1 expression (liver)", "setting": "[3]; 30 mg/kg/day po 22 days", "value": "significantly inhibited the expression of TGFβ-1"},
      {"measurement": "decrease of collagen levels (hepatic fibrosis)", "setting": "[3]; 30 mg/kg/day po 22 days", "value": 80, "unit": "%"},
      {"measurement": "fibronectin expression (liver)", "setting": "[3]; 30 mg/kg/day po 22 days", "value": "significantly inhibited the expression of fibronectin"},
      {"measurement": "plasma triglycerides", "setting": "[3]; 30 mg/kg/day po 22 days", "value": "significantly reduced plasma triglycerides"},
      {"measurement": "Col1a expression (liver)", "setting": "[3]; 100 mg/kg/day po 22 days", "value": "significantly inhibited the expression of Col1a"},
      {"measurement": "MCP-1 expression (liver)", "setting": "[3]; 100 mg/kg/day po 22 days", "value": "significantly inhibited the expression of MCP-1"},
      {"measurement": "TGFβ-1 expression (liver)", "setting": "[3]; 100 mg/kg/day po 22 days", "value": "significantly inhibited the expression of TGFβ-1"},
      {"measurement": "fibronectin expression (liver)", "setting": "[3]; 100 mg/kg/day po 22 days", "value": "significantly inhibited the expression of fibronectin"},
      {"measurement": "plasma triglycerides", "setting": "[3]; 100 mg/kg/day po 22 days", "value": "significantly reduced plasma triglycerides"},
      {"measurement": "α-SMA expression (liver)", "setting": "[3]; 100 mg/kg/day po 22 days", "value": "inhibited the expression of α-SMA compared to vehicle without reaching significance"},
      {"measurement": "decrease of collagen levels (hepatic fibrosis)", "setting": "[3]; 100 mg/kg/day po 22 days, 100 mg/kg/day", "value": "89% and 90%"},
      {"measurement": "IC50", "setting": "[4]", "value": "~11.2", "unit": "µM"},
      {"measurement": "IC50", "setting": "[5]", "value": 10.8, "unit": "µM"}
    ]}
  ]
}
